According to ChEMBL document CHEMBL5042470, “Combined Cardioprotective and Adipocyte Browning Effects Promoted by the Eutomer of Dual sEH/PPARγ Modulator” (J Med Chem, 2021):
Active and inactive are the calls of the source. The calls are words filed in the database; no cut-off is given here.

Tests used:
[1] = test system: Heart; test: Cardioprotective activity in Langendorff-perfused wild-type C57BL/6 mouse heart assessed as increase in heart rate at 30 nM; type: functional, tissue-based
[2] = test system: Heart; test: Cardioprotective activity in Langendorff-perfused wild-type C57BL/6 mouse heart assessed as increase in heart rate at 3 nM; type: functional, tissue-based
[3] = test system: SGBS; test: Induction of adipogenic differentiation in human SGBS cells assessed as increase in perilipin A mRNA expression A at 0.01 to 1 uM by RT-PCR analysis; type: functional, cell-based; details: dose 0.01-1 µM
[4] = test system: SGBS; test: Induction of browning in human SGBS cells assessed as increase in UQCRC2 mRNA expression by qRT-PCR analysis; type: functional, cell-based; details: dose 0.01-1 µM
[5] = test system: SGBS; test: Induction of browning in human SGBS cells assessed as increase in UCP1 mRNA expression at 0.01 to 1 uM by RT-PCR analysis; type: functional, cell-based; details: dose 0.01-1 µM
[6] = test system: SGBS; test: Induction of basal respiration in human SGBS cells assessed as increase in oxygen consumption rate at 0.01 to 1 uM incubated for 14 days in presence of dibutyryl-cAMP by Seahorse XFe96 flux analyzer; type: functional, cell-based; details: dose 0.01-1 µM, time 14.0 day
[7] = test system: SGBS; test: Induction of browning in human SGBS cells assessed as increase in UQCRC2 mRNA expression at 0.01 to 1 uM by qRT-PCR analysis; type: functional, cell-based; details: dose 0.01-1 µM
[8] = test system: SGBS; test: Induction of cellular respiration in human SGBS cells assessed as increase in oxygen consumption rate at 0.01 to 1 uM with ATP-linked sequential addition of FCCP measured after 14 days by Seahorse XFe96 flux analyzer; type: functional, cell-based; details: dose 0.01-1 µM, time 14.0 day
[9] = test system: SGBS; test: Induction of proton leakage in human SGBS cells assessed as increase in oxygen consumption rate at 0.01 to 1 uM with sequential addition of oligomycin measured after 14 days by Seahorse XFe96 flux analyzer; type: functional, cell-based; details: dose 0.01-1 µM, time 14.0 day
[10] = test system: SGBS; test: Induction of adipogenic differentiation in human SGBS cells assessed as intracellular lipid droplet accumulation at 0.01 to 1 uM measured after 4 days by Nile red staining based imaging analysis; type: functional, cell-based; details: dose 0.01-1 µM, time 4.0 day
[11] = target: T1, Peroxisome proliferator-activated receptor delta (Homo sapiens) (UniProt Q03181); test: Agonist activity at human GAL4 DBD-fused PPARdelta LBD (138 to 441 residues) transfected in HEK293T cells assessed as fold activation at 10 uM incubated for 14 to 16 hrs by Renilla/Firefly dual-luciferase reporter assay; type: cell-based; details: time 14-16 hrs
T1 sequence (whole entry): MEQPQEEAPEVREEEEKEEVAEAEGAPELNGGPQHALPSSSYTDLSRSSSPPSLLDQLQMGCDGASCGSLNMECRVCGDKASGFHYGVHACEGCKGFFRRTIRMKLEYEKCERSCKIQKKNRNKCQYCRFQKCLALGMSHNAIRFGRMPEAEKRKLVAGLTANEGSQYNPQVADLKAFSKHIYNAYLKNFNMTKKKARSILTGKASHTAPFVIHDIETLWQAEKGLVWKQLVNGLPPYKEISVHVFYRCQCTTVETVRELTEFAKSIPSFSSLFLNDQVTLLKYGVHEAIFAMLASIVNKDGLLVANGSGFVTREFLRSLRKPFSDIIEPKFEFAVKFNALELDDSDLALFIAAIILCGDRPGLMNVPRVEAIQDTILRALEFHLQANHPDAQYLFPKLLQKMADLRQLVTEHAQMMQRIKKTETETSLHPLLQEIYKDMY

[12] = target: T2, Oxysterols receptor LXR-alpha (Homo sapiens) (UniProt Q13133); test: Agonist activity at human GAL4 DBD-fused LXRalpha LBD (182 to 447 residues) transfected in HEK293T cells assessed as fold activation at 10 uM incubated for 14 to 16 hrs by Renilla/Firefly dual-luciferase reporter assay; type: cell-based; details: time 14-16 hrs
T2 sequence (whole entry): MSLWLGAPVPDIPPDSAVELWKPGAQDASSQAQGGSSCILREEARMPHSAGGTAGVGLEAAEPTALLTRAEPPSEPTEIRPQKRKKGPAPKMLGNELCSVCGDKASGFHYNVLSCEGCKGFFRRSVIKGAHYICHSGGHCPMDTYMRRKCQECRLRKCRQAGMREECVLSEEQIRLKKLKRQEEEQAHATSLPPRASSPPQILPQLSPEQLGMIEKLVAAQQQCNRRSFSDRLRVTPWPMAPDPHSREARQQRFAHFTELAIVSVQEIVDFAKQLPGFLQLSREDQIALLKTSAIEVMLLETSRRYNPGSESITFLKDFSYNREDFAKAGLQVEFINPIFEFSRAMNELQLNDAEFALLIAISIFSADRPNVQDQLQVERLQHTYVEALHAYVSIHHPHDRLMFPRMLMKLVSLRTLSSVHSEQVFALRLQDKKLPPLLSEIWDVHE

[13] = test system: Heart; test: Cardioprotective activity in Langendorff-perfused wild-type C57BL/6 mouse heart assessed as increase in heart rate at 300 nM; type: functional, tissue-based
[14] = target: T3, Peroxisome proliferator-activated receptor alpha (Homo sapiens) (UniProt Q07869); test: Agonist activity at human GAL4 DBD-fused PPARalpha ( 164 to 466 residues) LBD transfected in HEK293T cells assessed as fold activation at 10 uM incubated for 14 to 16 hrs by Renilla/Firefly dual-luciferase reporter assay; type: cell-based; details: filed as agonist, time 14-16 hrs
T3 sequence (whole entry): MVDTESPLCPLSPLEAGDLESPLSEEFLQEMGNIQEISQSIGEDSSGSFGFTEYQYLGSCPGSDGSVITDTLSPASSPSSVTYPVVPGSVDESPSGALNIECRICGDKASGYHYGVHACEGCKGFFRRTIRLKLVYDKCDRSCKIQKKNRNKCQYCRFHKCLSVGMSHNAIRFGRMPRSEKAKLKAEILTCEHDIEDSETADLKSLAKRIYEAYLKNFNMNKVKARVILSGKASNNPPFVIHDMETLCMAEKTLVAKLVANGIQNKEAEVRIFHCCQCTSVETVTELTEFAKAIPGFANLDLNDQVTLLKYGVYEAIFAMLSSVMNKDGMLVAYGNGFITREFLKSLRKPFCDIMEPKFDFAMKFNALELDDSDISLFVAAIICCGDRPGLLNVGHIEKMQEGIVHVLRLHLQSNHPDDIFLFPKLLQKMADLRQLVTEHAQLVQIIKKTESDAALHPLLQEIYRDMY

[15] = species: Mus musculus; test: Cardioprotective activity in Langendorff-perfused wild-type C57BL/6 mouse model of coronary occlusion induced ischemia/reperfusion assessed as decrease in left ventricular end diastolic pressure at 3 nmol/L followed by ischemia for 20 mins and measured 2 hrs after reperfusion […]; type: functional, organism-based; details: time 140.0 min
[16] = species: Mus musculus; test: Cardioprotective activity in Langendorff-perfused wild-type C57BL/6 mouse model of coronary occlusion induced ischemia/reperfusion assessed as increase in left ventricular developed pressure at 3 nmol/L followed by ischemia for 20 mins and measured 2 hrs after reperfusion […]; type: functional, organism-based; details: time 140.0 min
[17] = target: T4, Vitamin D3 receptor (Homo sapiens) (UniProt P11473); test: Agonist activity at human GAL4 DBD-fused VDR LBD (119 to 427 residues) transfected in HEK293T cells assessed as fold activation at 10 uM incubated for 14 to 16 hrs by Renilla/Firefly dual-luciferase reporter assay; type: cell-based; details: time 14-16 hrs
T4 sequence (whole entry): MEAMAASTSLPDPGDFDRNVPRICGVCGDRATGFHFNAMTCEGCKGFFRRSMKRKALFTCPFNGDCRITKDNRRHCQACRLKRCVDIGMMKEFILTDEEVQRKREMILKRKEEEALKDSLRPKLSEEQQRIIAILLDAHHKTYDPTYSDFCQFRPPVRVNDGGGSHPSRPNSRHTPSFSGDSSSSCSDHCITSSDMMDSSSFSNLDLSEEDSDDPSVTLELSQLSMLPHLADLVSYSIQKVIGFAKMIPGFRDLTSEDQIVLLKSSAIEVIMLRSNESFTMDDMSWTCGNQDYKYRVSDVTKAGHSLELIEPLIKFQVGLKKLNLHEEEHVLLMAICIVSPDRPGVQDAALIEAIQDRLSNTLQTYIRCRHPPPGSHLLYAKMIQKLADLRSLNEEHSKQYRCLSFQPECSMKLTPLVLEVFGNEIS

[18] = target: T5, Retinoic acid receptor alpha (Homo sapiens) (UniProt P10276); test: Agonist activity at human GAL4 DBD-fused RARalpha LBD (177 to 462 residues) transfected in HEK293T cells assessed as fold activation at 10 uM incubated for 14 to 16 hrs by Renilla/Firefly dual-luciferase reporter assay; type: cell-based; details: time 14-16 hrs
T5 sequence (whole entry): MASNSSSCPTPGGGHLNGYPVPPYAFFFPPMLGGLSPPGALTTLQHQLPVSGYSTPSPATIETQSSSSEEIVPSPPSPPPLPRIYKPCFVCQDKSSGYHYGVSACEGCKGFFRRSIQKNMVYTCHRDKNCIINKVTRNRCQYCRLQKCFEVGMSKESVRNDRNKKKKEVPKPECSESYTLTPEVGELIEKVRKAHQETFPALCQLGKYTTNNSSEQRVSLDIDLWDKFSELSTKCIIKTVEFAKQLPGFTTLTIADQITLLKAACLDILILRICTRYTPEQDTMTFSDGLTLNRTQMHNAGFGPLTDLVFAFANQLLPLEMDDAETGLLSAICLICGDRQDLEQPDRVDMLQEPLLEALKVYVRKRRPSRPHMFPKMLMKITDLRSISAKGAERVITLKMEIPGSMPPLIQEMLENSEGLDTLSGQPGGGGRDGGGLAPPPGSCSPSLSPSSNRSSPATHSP

SMILES	Activity [1]	Activity [2]	Activity [3]	Activity [4]	Activity [5]	Activity [6]	Activity [7]	Activity [8]	Activity [9]	Activity [10]	Activity [11]	Activity [12]	Activity [13]	Activity [14]	Activity [15]	Activity [16]	Activity [17]	Activity [18]
O=C(NC12CC3CC(CC(C3)C1)C2)N[C@H]1CC[C@H](Oc2ccc(C(=O)O)cc2)CC1	Active	inactive	–	–	–	–	–	–	–	–	–	–	–	–	–	–	–	–
CN(CCOc1ccc(CC2SC(=O)NC2=O)cc1)c1ccccn1 (configuration not stated)	–	–	Active	Dose-Dependent Effect	–	–	–	–	–	–	–	–	–	–	–	–	–	–
CC[C@@H](Cc1ccc(C(=O)NCc2ccc(OC)cc2C(F)(F)F)cc1)C(=O)O	–	–	Active	–	inactive	Active	inactive	Active	Active	inactive	–	–	–	–	–	–	–	–
CC[C@H](Cc1ccc(C(=O)NCc2ccc(OC)cc2C(F)(F)F)cc1)C(=O)O	–	inactive	Active	–	Active	Active	inactive	Active	Active	Active	inactive	inactive	Active	Active	Active	Active	inactive	inactive
